This is an account of results in ChEMBL document CHEMBL5620436, “Structure-Guided Design and Optimization of Covalent VHL-Targeted Sulfonyl Fluoride PROTACs” (J Med Chem, 2024).

Active and inactive are the calls of the source. No cut-off for these calls is given here.

In general, IC50 refers to the midpoint of a concentration-inhibition curve. One may read the EC50 as the concentration needed to bring the measured effect to its halfway point.

The test system of series [1] is LNCaP. The experiment in a line: Cytotoxicity against human LNCaP cells harbouring HiBit tagged AR assessed as reduction in cell viability measured after 16 hrs by cell titer glo assay. Type of series: functional, cell-based. Background: With HiBiT, luminescence reflects the tagged protein that the partner subunit can reach.
Series [2] addresses T1, von Hippel-Lindau disease tumor suppressor/Androgen receptor (Homo sapiens) (UniProt P10275+P40337). Put plainly: PROTAC activity at VHL/HiBit tagged AR in human LNCaP cells assessed as degradation of AR preincubated with MLN4924 for 3 hrs followed by compound addition and measured after 18 hrs by Nano-Glo HiBiT assay. Type of series: cell-based.
Series [3] has as its target T1, von Hippel-Lindau disease tumor suppressor/Androgen receptor (Homo sapiens). Put plainly: PROTAC activity at VHL/HiBit tagged AR in human LNCaP cells assessed as degradation of AR preincubated with epoxomicin for 3 hrs followed by compound addition and measured after 18 hrs by Nano-Glo HiBiT assay. Type of series: cell-based.
Series [4] addresses T2, von Hippel-Lindau disease tumor suppressor (Homo sapiens, UniProt P40337). Put plainly: Inhibition of N-terminal 6his tagged human VHL (1 to 213 residues) expressed in HEK293 cells using NanoBRET NanoGlo substrate by NanoBRET assay. Type of series: cell-based. On the technique in general: In BRET a luciferase serves as donor, and the signal depends on an acceptor being close.

Series [5] has as its target T3, von Hippel-Lindau disease tumor suppressor/Bromodomain-containing protein 4 (Homo sapiens, UniProt O60885+P40337). The experiment in a line: PROTAC activity at HiBit tagged BRD4/VHL E3 ligase in human HEK293 cells assessed as degradation of BRD4 incubated for 18 hrs by Nano-Glo HiBiT assay. Type of series: cell-based.
The test system of series [6] is HEK293. Put plainly: Cytotoxicity against human HEK293 cells harbouring HiBit tagged BRD4 assessed as reduction in cell viability measured after 18 hrs by cell titer glo assay. Format: toxicity, cell-based. Particulars: hek293, 18 h.
Series [7] addresses T3, von Hippel-Lindau disease tumor suppressor/Bromodomain-containing protein 4. The experiment in a line: PROTAC activity at HiBit tagged BRD4/VHL E3 ligase in human HEK293 cells assessed as degradation of BRD4 preincubated with epoxomicin for 3 hrs followed by compound addition and measured after 18 hrs by Nano-Glo HiBiT assay. Format: cell-based.
Series [8] has the same target. Put plainly: PROTAC activity at HiBit tagged BRD4/VHL E3 ligase in human HEK293 cells assessed as degradation of BRD4 preincubated with MLN4924 for 3 hrs followed by compound addition and measured after 18 hrs by Nano-Glo HiBiT assay. Format: cell-based.
Series [9] has as its target T2, von Hippel-Lindau disease tumor suppressor. The experiment in a line: Inhibition of VHL in HEK293T cells assessed as target engagement incubated for 2 hrs by Streptavidin-pull down blotting assay. Type of series: cell-based. Particulars: dose 1-100 µM.

`Cc1cc([C@H](C(=O)N2C[C@H](S(=O)(=O)F)C[C@H]2C(=O)N[C@@H](CC(=O)N2CCC(C#Cc3ccc(C(=O)N[C@H]4C(C)(C)[C@H](Oc5ccc(C#N)c(C(F)(F)F)c5)C4(C)C)cc3)CC2)c2ccc(-c3scnc3C)cc2)C(C)C)on1`: the outcome in series [1], in series [2] and in series [3] was inactive.

For the molecule `CC(=O)N[C@H](C(=O)N1C[C@H](S(=O)(=O)F)C[C@H]1C(=O)NCc1ccc(-c2scnc2C)cc1)C(C)(C)C`, the IC50 in series [4] is > 100 µM.

Consider `Cc1cc([C@H](C(=O)N2C[C@H](S(=O)(=O)F)C[C@H]2C(=O)N[C@@H](CC(=O)N2CCC(C#Cc3ccc(C(=O)N[C@H]4C(C)(C)[C@H](Oc5ccc(C#N)c(Cl)c5)C4(C)C)cc3)CC2)c2ccc(-c3scnc3C)cc2)C(C)C)on1`, for which the result in series [1], in series [2] and in series [3] was inactive.

Take `COCC(COC)n1c(-c2cc(C)c(=O)n(C)c2)nc2cc(C3CCN(C(=O)COCCOCCOCCNC(=O)C[C@H](NC(=O)[C@@H]4C[C@@H](S(=O)(=O)F)CN4C(=O)[C@@H](c4cc(C)no4)C(C)C)c4ccc(-c5scnc5C)cc4)CC3)ccc21`: the EC50 in [5] was determined as 17.2 µM. Also, in [6], the Activity result is listed as “Non-Toxic”. Also, the result in series [7] and in series [8] was inactive.

With `Cc1cc([C@H](C(=O)N2C[C@H](S(=O)(=O)F)C[C@H]2C(=O)N[C@@H](CC(=O)NCCOCCOCCOCCNC(=O)CCCC[C@H]2SC[C@@H]3NC(=O)N[C@@H]32)c2ccc(-c3scnc3C)cc2)C(C)C)on1`, in series [9], the inhibition result was “Dose-Dependent Effect”.
